These results are taken from article PMC6832952, “Synthesis and Evaluation of Pyrimidine Steroids as Antiproliferative Agents” (Molecules, 2019).

The test system of data set [1] is A549 (non-small cell lung) cells. Kind of data set: Growth inhibition assay (NCI protocol), A549. It is filed as cell-based, human. The settings on record: 48 h exposure. The text has this: (§1) We studied the antiproliferative activity of α,β-unsaturated ketones (2 and 6) and steroidal pyrimidines (3 and 7) against human cell lines following the guidelines of the National Cancer Institute. For the tests we selected five human solid tumor cell lines from diverse origins and one human fibroblast cell line as a model of non-tumor cells. These cell lines were chosen as representative of drug sensitive (A549, HBL-100, and HeLa) and drug resistant (T-47D and WiDr) monolayer cultures based on previous studies. The steroidal anticancer drugs abiraterone and galeterone were also tested for comparison purposes. […] This is a relevant finding, since our compounds are non-toxic to healthy cells, whilst the steroidal anticancer drugs inhibit the growth of fibroblasts at GI50 values as low as 4.5–5 µM.
(§2) The following densities (cells per well) were used: 2500 (A549, HBL-100, HeLa and SW1573), 5000 (T-47D, WiDr and SW1573/PGP), and 7000 (BJ-hTERT). […] Abiraterone and galeterone were used as reference drugs for antiproliferative tests, verapamil was used as a P-gp transport inhibitor in SW1573/Pgp experiments, and their stock solutions were prepared in DMSO at 40 mM. Paclitaxel and vinblastine were used as positive controls in SW1573/Pgp experiments and were initially dissolved in DMSO at 4 mM. For each test compound, the cells were exposed to serial decimal dilutions in the range of 0.001–100 μM for a period of 48 h. Cell culture medium containing verapamil was prepared by adding the final concentration of verapamil of 10 μM. For each product GI50 values were calculated according to the NCI formulas.

Data set [2] relates to SW1573/PGP cells. Put plainly: in vitro. An excerpt: (§3) Next, we studied if the compounds could be substrates for P-glycoprotein 1 (P-gp). P-gp is an important protein of the cell membrane that pumps xenobiotics out of cells. One of the resistance mechanisms to anticancer drugs involves the overexpression of P-gp by cancer cells, rendering these cancers multidrug resistant. Therefore, it is relevant to know whether compounds are substrates for P-gp or not. As a model to test the effect of P-gp overexpression in our compounds, we used a cell line-based assay. We selected one wild type human lung cancer cell line (SW1573) and its P-gp overexpressing variant (SW1573/PGP). In this test, cells were exposed to the compounds for 48 h in the absence or the presence of 10 µM verapamil, a well-known P-gp inhibitor [20].
(§4) The human solid tumor cell lines A549 (non-small cell lung), HBL-100 (breast), and HeLa (cervix), SW1573 (non-small cell lung), and its P-gp overexpressing variant (SW1573/Pgp), T-47D (breast), and WiDr (colon) were used in this study. These cell lines used in this study were kindly provided by Dr. Godefridus J. Peters (Cancer Center Amsterdam, Vrije Universiteit, Amsterdam, The Netherlands). BJ-hTERT human fibroblast cells were given by Dr. Raimundo Freire (Universidad de La Laguna, Canary Islands). All cells were grown in RPMI 1640 supplemented with 1 mM glutamine, 5% FBS and antibiotics. Cells were grown at 37 °C in a humidified atmosphere of 5% CO2 and maintained at low passage.
(§5) The antiproliferative activity was tested in vitro against human cancer cells using the protocol of the National Cancer Institute (NCI) of the USA16 with minor modifications. The following densities (cells per well) were used: 2500 (A549, HBL-100, HeLa and SW1573), 5000 (T-47D, WiDr and SW1573/PGP), and 7000 (BJ-hTERT). Samples for testing were dissolved initially in DMSO at 40 mM, i.e., 400 times the maximum test concentration. Abiraterone and galeterone were used as reference drugs for antiproliferative tests, verapamil was used as a P-gp transport inhibitor in SW1573/Pgp experiments, and their stock solutions were prepared in DMSO at 40 mM. Paclitaxel and vinblastine were used as positive controls in SW1573/Pgp experiments and were initially dissolved in DMSO at 4 mM. For each test compound, the cells were exposed to serial decimal dilutions in the range of 0.001–100 μM for a period of 48 h. Cell culture medium containing verapamil was prepared by adding the final concentration of verapamil of 10 μM. For each product GI50 values were calculated according to the NCI formulas.

In data set [3] the test system is WiDr (colon) cells. Put plainly: Growth inhibition assay (NCI protocol), WiDr. It is filed as cell-based, human. Conditions: 48 h exposure.
Excerpt: as §1, §2

Data set [4] concerns HBL-100 (breast) cells. Kind of data set: Growth inhibition assay (NCI protocol), HBL-100. It is filed as cell-based, human. The settings on record: 48 h exposure.
Excerpt: as §1, §2

Data set [5] relates to BJ-hTERT human fibroblast cells. Put plainly: Growth inhibition assay (NCI protocol), BJ-hTERT fibroblasts. It is filed as cell-based. Conditions: 48 h exposure; non-tumor cells.
Excerpt: as §1, §2

In data set [6] the test system is HeLa (cervix) cells. Kind of data set: Growth inhibition assay (NCI protocol), HeLa. It is filed as cell-based, human. The settings on record: 48 h exposure.
Excerpt: as §1, §2

Data set [7] has as its system T-47D (breast) cells. Kind of data set: Growth inhibition assay (NCI protocol), T-47D. It is filed as cell-based, human. The settings on record: 48 h exposure.
Excerpt: as §1, §2

Data set [8] relates to SW1573 (non-small cell lung) cells. Put plainly: Growth inhibition assay, SW1573 wild type. It is filed as cell-based, human. The settings on record: 48 h, without verapamil; read-out: GI50 SW1573 w/o Verapamil.
Excerpt: as §3, §4, §5

A short description of data set [9]: Solubility under protocol conditions. It is filed as physicochemical. The settings on record: growth inhibition protocol conditions.
Excerpt: as §1
The following densities (cells per well) were used: 2500 (A549, HBL-100, HeLa and SW1573), 5000 (T-47D, WiDr and SW1573/PGP), and 7000 (BJ-hTERT). […] Abiraterone and galeterone were used as reference drugs for antiproliferative tests, verapamil was used as a P-gp transport inhibitor in SW1573/Pgp experiments, and their stock solutions were prepared in DMSO at 40 mM. Paclitaxel and vinblastine were used as positive controls in SW1573/Pgp experiments and were initially dissolved in DMSO at 4 mM. […] For each product GI50 values were calculated according to the NCI formulas.

For the molecule “20-Oxopregna-5,16-dien-3β-yl Acetate [Compound 6]”, the GI50 in data set [1] is 26 ± 5.2 µM; in [2], above 100 µM; in data set [3], 37 ± 2.1 µM; in data set [4], 64 ± 1.6 µM; in data set [5], above 100 µM; in [6] it was 3.6 ± 0.4 µM. The GI50 in [7] stood at 29 ± 4.5 µM; in data set [8], 72 ± 10 µM.

As to `CC1=C2C(CC3C4CC=C5C[C@@H](O)CC[C@]5(C)C4CC[C@]23C)NC(=N)N1` (stereo partly drawn) [Compound 7a, 1′,3′-dihydro-2′-imino-4′-methylpyrimidin-(6′,5′:16,17)-androst-5-en-3β-ol], the melting point is 108 to 110 °C. Also, in data set [9], the “solubility under protocol conditions” value is “poor solubility”.
